Measurements: the NIST ThermoML archive (doi:10.1021/je700026d)

Assay: xn = mol fraction of the nth substance listed
Settings: Liquid; for speed of sound: 100 kPa, Linear variable-path acoustic interferometer; for mass density: Pycnometric method; for viscosity: Capillary tube (Ostwald / Ubbelohde) method

COCCOC [1,2-dimethoxyethane] + NC=O
298.15 K
Settings	speed of sound [m/s]
x2 = 0	1146.2
x2 = 0.1819	1200.3
x2 = 0.3334	1254.3
x2 = 0.4616	1306.2
x2 = 0.5715	1355
x2 = 0.6668	1399.9
x2 = 0.7501	1441.9
x2 = 0.8236	1480.5
x2 = 0.8889	1518.5
x2 = 0.9474	1556.1

Settings	mass density, 298.15 K [kg/m3]	mass density, 308.15 K [kg/m3]	mass density, 318.15 K [kg/m3]	viscosity, 298.15 K [mPa·s]	viscosity, 308.15 K [mPa·s]	viscosity, 318.15 K [mPa·s]
101 kPa, x2 = 0	861.5	850.7	839.6	–	–	–
101 kPa, x2 = 0.1819	893.1	883.5	874.6	–	–	–
101 kPa, x2 = 0.3334	920.1	910.4	902.6	–	–	–
101 kPa, x2 = 0.4616	946	936.3	929.4	–	–	–
101 kPa, x2 = 0.5715	971.8	962.3	955.9	–	–	–
101 kPa, x2 = 0.6668	997.3	988.5	982.2	–	–	–
101 kPa, x2 = 0.7501	1022.2	1013.6	1007.5	–	–	–
101 kPa, x2 = 0.8236	1048.3	1039.4	1033.3	–	–	–
101 kPa, x2 = 0.8889	1073.7	1065.7	1059.2	–	–	–
101 kPa, x2 = 0.9474	1100.3	1092.7	1085.5	–	–	–
101.3 kPa, x2 = 0	–	–	–	0.409	0.366	0.33
101.3 kPa, x2 = 0.1819	–	–	–	0.603	0.522	0.459
101.3 kPa, x2 = 0.3334	–	–	–	0.848	0.713	0.609
101.3 kPa, x2 = 0.4616	–	–	–	1.164	0.952	0.785
101.3 kPa, x2 = 0.5715	–	–	–	1.545	1.243	0.994
101.3 kPa, x2 = 0.6668	–	–	–	1.925	1.536	1.218
101.3 kPa, x2 = 0.7501	–	–	–	2.296	1.806	1.427
101.3 kPa, x2 = 0.8236	–	–	–	2.627	2.045	1.614
101.3 kPa, x2 = 0.8889	–	–	–	2.899	2.243	1.775
101.3 kPa, x2 = 0.9474	–	–	–	3.12	2.408	1.903

CC(=O)c1ccccc1 [acetophenone] + NC=O
298.15 K
Settings	speed of sound [m/s]
x2 = 0	1296.4
x2 = 0.2286	1304.8
x2 = 0.4001	1323.3
x2 = 0.5334	1345.8
x2 = 0.6401	1379.3
x2 = 0.7273	1413.6
x2 = 0.8001	1456.5
x2 = 0.8616	1488.4
x2 = 0.9143	1527.3
x2 = 0.96	1558.9

101.3 kPa
Settings	mass density, 298.15 K [kg/m3]	mass density, 308.15 K [kg/m3]	mass density, 318.15 K [kg/m3]	viscosity, 298.15 K [mPa·s]	viscosity, 308.15 K [mPa·s]	viscosity, 318.15 K [mPa·s]
x2 = 0	1023.1	1014.8	1007.5	1.653	1.412	1.117
x2 = 0.2286	1032.9	1024.9	1017.5	2.234	1.762	1.377
x2 = 0.4001	1042.9	1035.1	1027.5	2.795	2.077	1.607
x2 = 0.5334	1053.1	1045.3	1037.6	3.267	2.355	1.825
x2 = 0.6401	1063.3	1055.5	1047.7	3.596	2.587	1.988
x2 = 0.7273	1073.8	1065.8	1057.9	3.778	2.724	2.1
x2 = 0.8001	1084.4	1076.3	1068.2	3.819	2.779	2.141
x2 = 0.8616	1095.3	1087	1078.7	3.735	2.748	2.111
x2 = 0.9143	1106.4	1097.9	1089.4	3.59	2.685	2.068
x2 = 0.96	1117.7	1109.1	1100.1	3.439	2.608	2.027
